Measurements from patent US9062124B2, “GIP-based mixed agonists for treatment of metabolic disorders and obesity” (priority 2008, dated 2015).
Blank lines part the entries; values can stand above or below the compound they belong to. Where a SMILES comes first, the peptide text is derived from it. Bridges are numbered along the chain shown (N, C = ends). [ ]: non-standard residue; d: D form. The star is where a group is joined. Stearoyl = CCCCCCCCCCCCCCCCCC(=O)*; Aib = CC(C)(N)C(=O)O

Assays:
Assay type in all cases: cell-based
[1] = molecular target: T1, glucagon receptor (Homo sapiens, UniProt P47871); experiment: cAMP synthesis functional assay (firefly luciferase reporter in HEK293 cells), glucagon receptor; details: for EC50: Glucagon Receptor EC50, cAMP luciferase reporter assay as in Example 16
T1 construct: expressed in transfected cells; host or cells: HEK293

[2] = molecular target: T2, GLP-1 receptor (Homo sapiens, UniProt P43220); experiment: cAMP synthesis functional assay (firefly luciferase reporter in HEK293 cells), GLP-1 receptor
T2 construct: expressed in transfected cells; host or cells: HEK293

[3] = molecular target: T3, GIP receptor (Homo sapiens, UniProt P48546); experiment: cAMP synthesis functional assay (firefly luciferase reporter in HEK293 cells), GIP receptor
T3 construct: expressed in transfected cells; host or cells: HEK293
T3 sequence (P48546 22-466): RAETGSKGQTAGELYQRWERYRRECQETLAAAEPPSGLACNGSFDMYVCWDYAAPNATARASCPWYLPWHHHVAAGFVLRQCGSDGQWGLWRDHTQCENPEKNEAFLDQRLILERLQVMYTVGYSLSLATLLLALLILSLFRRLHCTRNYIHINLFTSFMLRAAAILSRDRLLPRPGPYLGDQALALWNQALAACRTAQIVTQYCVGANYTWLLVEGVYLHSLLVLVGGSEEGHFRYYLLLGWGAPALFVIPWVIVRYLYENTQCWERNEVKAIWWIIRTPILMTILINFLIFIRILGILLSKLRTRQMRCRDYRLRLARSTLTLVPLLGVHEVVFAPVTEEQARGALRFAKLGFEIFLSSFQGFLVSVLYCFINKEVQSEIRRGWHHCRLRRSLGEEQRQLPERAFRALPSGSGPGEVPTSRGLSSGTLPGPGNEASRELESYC

[4] = Table 1, relative to the native hormone of the indicated receptor
[5] = relative to the standard (Std.) EC50 of the same run
[6] = GLP-1 Receptor EC50, cAMP luciferase reporter assay as in Example 16

T2 sequence (P43220 24-463, species assumed): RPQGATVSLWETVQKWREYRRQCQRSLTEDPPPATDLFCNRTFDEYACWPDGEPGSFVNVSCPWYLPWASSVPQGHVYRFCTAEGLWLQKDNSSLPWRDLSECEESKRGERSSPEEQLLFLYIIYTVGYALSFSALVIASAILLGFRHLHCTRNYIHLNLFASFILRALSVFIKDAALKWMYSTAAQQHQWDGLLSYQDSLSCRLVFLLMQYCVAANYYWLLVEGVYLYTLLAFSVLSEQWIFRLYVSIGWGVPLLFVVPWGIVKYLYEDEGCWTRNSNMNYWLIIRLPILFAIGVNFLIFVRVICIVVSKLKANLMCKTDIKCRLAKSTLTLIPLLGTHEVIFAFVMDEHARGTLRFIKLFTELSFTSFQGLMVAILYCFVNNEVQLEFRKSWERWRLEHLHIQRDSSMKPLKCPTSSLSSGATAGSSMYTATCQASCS
T1 sequence (P47871 26-477): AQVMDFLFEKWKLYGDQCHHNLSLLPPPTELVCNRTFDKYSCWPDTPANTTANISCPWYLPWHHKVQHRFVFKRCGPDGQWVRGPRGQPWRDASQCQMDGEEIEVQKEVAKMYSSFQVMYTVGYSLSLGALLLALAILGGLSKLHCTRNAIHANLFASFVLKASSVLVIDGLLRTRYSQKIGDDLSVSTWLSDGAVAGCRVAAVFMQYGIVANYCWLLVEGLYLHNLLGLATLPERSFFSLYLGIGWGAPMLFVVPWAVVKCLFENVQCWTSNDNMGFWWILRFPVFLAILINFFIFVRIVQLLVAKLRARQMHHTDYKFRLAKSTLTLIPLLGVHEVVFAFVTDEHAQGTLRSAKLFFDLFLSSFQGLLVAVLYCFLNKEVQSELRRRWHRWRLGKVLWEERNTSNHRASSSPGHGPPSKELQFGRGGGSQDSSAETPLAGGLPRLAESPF

SMILES: CC[C@H](C)[C@H](NC(=O)[C@H](CO)NC(=O)[C@H](Cc1ccc(O)cc1)NC(=O)[C@H](CC(=O)O)NC(=O)[C@H](CO)NC(=O)[C@@H](NC(=O)[C@H](Cc1ccccc1)NC(=O)[C@@H](NC(=O)CNC(=O)[C@H](CCC(N)=O)NC(=O)C(C)(C)NC(=O)[C@@H](N)Cc1ccc(O)cc1)[C@@H](C)O)[C@@H](C)O)C(=O)N[C@@H](Cc1ccc(O)cc1)C(=O)N[C@@H](CC(C)C)C(=O)N[C@@H](CC(=O)O)C(=O)NC(C)(C)C(=O)N[C@@H](CCC(N)=O)C(=O)N[C@@H](C)C(=O)N[C@@H](C)C(=O)N[C@@H](CCCCN)C(=O)N[C@@H](CCC(=O)O)C(=O)N[C@@H](Cc1ccccc1)C(=O)N[C@H](C(=O)N[C@@H](CC(N)=O)C(=O)N[C@@H](Cc1c[nH]c2ccccc12)C(=O)N[C@@H](CC(C)C)C(=O)N[C@@H](CC(C)C)C(=O)N[C@@H](C)C(=O)NCC(=O)NCC(=O)N1CCC[C@H]1C(=O)N[C@@H](CO)C(=O)N[C@@H](CO)C(=O)NCC(=O)N[C@@H](C)C(=O)N1CCC[C@H]1C(=O)N1CCC[C@H]1C(=O)N1CCC[C@H]1C(=O)N[C@@H](CO)C(=O)N[C@@H](CS)C(N)=O)C(C)C [mt-241] (H-Y[Aib]QGTFTSDYSIYLD[Aib]QAAKEFVNWLLAGGPSSGAPPPSC-NH2; N-terminus assumed)
Glucagon Receptor relative activity ([1]; Table 2): 3.73% | EC50 ([2]; GLP-1 Receptor EC50, nM, Table 2): 0.023 nM | GLP-1 Receptor relative activity ([2]; Table 2): 130.43% | GIP Receptor relative activity ([3]; Table 2): 4.37%

Glucagon Receptor relative activity [1, 4]: 0.04% | GLP-1 Receptor relative activity [2, 4]: 0.08% | GIP Receptor relative activity [3, 4]: 10.54%
SMILES: CC[C@H](C)[C@H](NC(=O)[C@H](CO)NC(=O)[C@H](Cc1ccc(O)cc1)NC(=O)[C@H](CC(=O)O)NC(=O)[C@H](CO)NC(=O)[C@@H](NC(=O)[C@H](Cc1ccccc1)NC(=O)[C@@H](NC(=O)CNC(=O)[C@H](CCC(=O)O)NC(=O)[C@H](C)NC(=O)[C@@H](N)Cc1c[nH]cn1)[C@@H](C)O)[C@@H](C)CC)C(=O)N[C@@H](C)C(=O)N[C@@H](CCSC)C(=O)N[C@@H](CC(=O)O)C(=O)N[C@H]1CCC(=O)NCCCC[C@@H](C(=O)N[C@@H](CC(=O)O)C(=O)N[C@@H](Cc2ccccc2)C(=O)N[C@H](C(=O)N[C@@H](CC(N)=O)C(=O)N[C@@H](Cc2c[nH]c3ccccc23)C(=O)N[C@@H](CC(C)C)C(=O)N[C@@H](CC(C)C)C(=O)N[C@@H](C)C(=O)N[C@@H](CCC(N)=O)C(N)=O)C(C)C)NC(=O)[C@H](CCC(N)=O)NC(=O)[C@H](Cc2c[nH]cn2)NC(=O)[C@H]([C@@H](C)CC)NC1=O [mt-95] (H-HAEGTFISDYSIAMDEIHQKDFVNWLLAQ-NH2; lactam 16-20; N-terminus assumed)

SMILES: CC[C@H](C)[C@H](NC(=O)[C@H](CO)NC(=O)[C@H](Cc1ccc(O)cc1)NC(=O)[C@H](CC(=O)O)NC(=O)[C@H](CO)NC(=O)[C@@H](NC(=O)[C@H](Cc1ccccc1)NC(=O)[C@@H](NC(=O)CNC(=O)[C@H](CCC(=O)O)NC(=O)C(C)(C)NC(=O)[C@@H](N)Cc1ccc(O)cc1)[C@@H](C)O)[C@@H](C)O)C(=O)N[C@@H](Cc1ccc(O)cc1)C(=O)N[C@@H](CC(C)C)C(=O)N[C@@H](CC(=O)O)C(=O)N[C@@H](CCCCN)C(=O)N[C@@H](CCC(N)=O)C(=O)N[C@@H](C)C(=O)N[C@@H](C)C(=O)NC(C)(C)C(=O)N[C@@H](CCC(=O)O)C(=O)N[C@@H](Cc1ccccc1)C(=O)N[C@H](C(=O)N[C@@H](CS)C(=O)N[C@@H](Cc1c[nH]c2ccccc12)C(=O)N[C@@H](CC(C)C)C(=O)N[C@@H](CC(C)C)C(=O)N[C@@H](C)C(=O)NCC(=O)NCC(=O)N1CCC[C@H]1C(=O)N[C@@H](CO)C(=O)N[C@@H](CO)C(=O)NCC(=O)N[C@@H](C)C(=O)N1CCC[C@H]1C(=O)N1CCC[C@H]1C(=O)N1CCC[C@H]1C(=O)N[C@@H](CO)C(=O)N[C@H](CCCCN)C(N)=O)C(C)C [mt-334]
EC50 [1]: 7.07 nM | Glucagon Receptor relative activity [1, 5]: 0.27% | EC50 [2, 6]: 0.0034 nM | GLP-1 Receptor relative activity [2, 5]: 70.59% | EC50 ([3]; GIP Receptor EC50, cAMP luciferase reporter assay as in Example 16): 0.0041 nM | GIP Receptor relative activity [3, 5]: 187.80%

Glucagon Receptor relative activity [1, 4]: 0.29% | GLP-1 Receptor relative activity [2, 4]: 0.04% | GIP Receptor relative activity [3, 4]: 84.48%
SMILES: CC[C@H](C)[C@H](NC(=O)[C@H](CO)NC(=O)[C@H](Cc1ccc(O)cc1)NC(=O)[C@H](CC(=O)O)NC(=O)[C@H](CO)NC(=O)[C@@H](NC(=O)[C@H](Cc1ccccc1)NC(=O)[C@@H](NC(=O)CNC(=O)[C@H](CCC(=O)O)NC(=O)[C@H](C)NC(=O)[C@@H](N)Cc1ccc(O)cc1)[C@@H](C)O)[C@@H](C)CC)C(=O)N[C@@H](C)C(=O)N[C@@H](CCSC)C(=O)N[C@@H](CC(=O)O)C(=O)N[C@H]1CCC(=O)NCCCC[C@@H](C(=O)N[C@@H](CC(=O)O)C(=O)N[C@@H](Cc2ccccc2)C(=O)N[C@H](C(=O)N[C@@H](CC(N)=O)C(=O)N[C@@H](Cc2c[nH]c3ccccc23)C(=O)N[C@@H](CC(C)C)C(=O)N[C@@H](CC(C)C)C(=O)N[C@@H](C)C(=O)N[C@@H](CCC(N)=O)C(N)=O)C(C)C)NC(=O)[C@H](CCC(N)=O)NC(=O)[C@H](Cc2c[nH]cn2)NC(=O)[C@H]([C@@H](C)CC)NC1=O [mt-96] (H-YAEGTFISDYSIAMDEIHQKDFVNWLLAQ-NH2; lactam 16-20; N-terminus assumed)

Glucagon Receptor relative activity [1, 4]: 76.92% | GLP-1 Receptor relative activity [2, 4]: 0.78% | GIP Receptor relative activity [3, 4]: 6.99%
SMILES: CC[C@H](C)[C@@H]1NC(=O)[C@@H](NC(=O)[C@H](CC(=O)O)NC(=O)[C@H](CC(C)C)NC(=O)[C@H](Cc2ccc(O)cc2)NC(=O)[C@H](CCCCN)NC(=O)[C@H](CO)NC(=O)[C@H](Cc2ccc(O)cc2)NC(=O)[C@H](CC(=O)O)NC(=O)[C@H](CO)NC(=O)[C@@H](NC(=O)[C@H](Cc2ccccc2)NC(=O)[C@@H](NC(=O)CNC(=O)[C@H](CCC(N)=O)NC(=O)[C@H](CO)NC(=O)[C@@H](N)Cc2ccc(O)cc2)[C@@H](C)O)[C@@H](C)O)CCC(=O)NCCCC[C@@H](C(=O)N[C@@H](CC(=O)O)C(=O)N[C@@H](Cc2ccccc2)C(=O)N[C@H](C(=O)N[C@@H](CC(N)=O)C(=O)N[C@@H](Cc2c[nH]c3ccccc23)C(=O)N[C@@H](CC(C)C)C(=O)N[C@@H](CC(C)C)C(=O)N[C@@H](C)C(=O)N[C@@H](CCC(N)=O)C(N)=O)C(C)C)NC(=O)[C@H](CCC(N)=O)NC(=O)[C@H](Cc2c[nH]cn2)NC1=O [mt-109] (H-YSQGTFTSDYSKYLDEIHQKDFVNWLLAQ-NH2; lactam 16-20; N-terminus assumed)

EC50 [1]: 4.17 nM | Glucagon Receptor relative activity [1, 5]: 0.69% | EC50 [2, 6]: 0.0155 nM | GLP-1 Receptor relative activity [2, 5]: 38.06% | GIP Receptor relative activity [3, 5]: 54.84%
SMILES: CCCCCCCCCCCCCCCCCC(=O)NCCCC[C@H](NC(=O)[C@H](CC(=O)O)NC(=O)[C@H](CO)NC(=O)[C@@H](NC(=O)[C@H](Cc1ccccc1)NC(=O)[C@@H](NC(=O)CNC(=O)[C@H](CCC(=O)O)NC(=O)C(C)(C)NC(=O)[C@@H](N)Cc1ccc(O)cc1)[C@@H](C)O)[C@@H](C)O)C(=O)N[C@@H](CO)C(=O)N[C@H](C(=O)N[C@@H](Cc1ccc(O)cc1)C(=O)N[C@@H](CC(C)C)C(=O)N[C@@H](CC(=O)O)C(=O)N[C@@H](CCCCN)C(=O)N[C@@H](CCC(N)=O)C(=O)N[C@@H](C)C(=O)N[C@@H](C)C(=O)NC(C)(C)C(=O)N[C@@H](CCC(=O)O)C(=O)N[C@@H](Cc1ccccc1)C(=O)N[C@H](C(=O)N[C@@H](CC(N)=O)C(=O)N[C@@H](Cc1c[nH]c2ccccc12)C(=O)N[C@@H](CC(C)C)C(=O)N[C@@H](CC(C)C)C(=O)N[C@@H](C)C(=O)NCC(N)=O)C(C)C)[C@@H](C)CC [mt-284] (H-Y[Aib]EGTFTSDK(Stearoyl)SIYLDKQAA[Aib]EFVNWLLAG-NH2; N-terminus assumed)

SMILES: CC[C@H](C)[C@H](NC(=O)[C@H](Cc1ccccc1)NC(=O)[C@H](CCC(=O)O)NC(=O)[C@@H]1CCCCNC(=O)CC[C@H](NC(=O)[C@H](CC(=O)O)NC(=O)[C@H](CC(C)C)NC(=O)[C@H](Cc2ccc(O)cc2)NC(=O)[C@H](CCCCN)NC(=O)[C@H](CO)NC(=O)[C@H](Cc2ccc(O)cc2)NC(=O)[C@H](CC(=O)O)NC(=O)[C@H](CO)NC(=O)[C@@H](NC(=O)[C@H](Cc2ccccc2)NC(=O)[C@@H](NC(=O)CNC(=O)[C@H](CCC(N)=O)NC(=O)[C@H](CO)NC(=O)[C@@H](N)Cc2ccc(O)cc2)[C@@H](C)O)[C@@H](C)O)C(=O)N[C@@H](CCC(N)=O)C(=O)N[C@@H](C)C(=O)N[C@@H](C)C(=O)N1)C(=O)N[C@@H](C)C(=O)N[C@@H](Cc1c[nH]c2ccccc12)C(=O)N[C@@H](CC(C)C)C(=O)N[C@@H](CC(C)C)C(=O)N[C@@H](C)C(=O)NCC(=O)NCC(=O)N1CCC[C@H]1C(=O)N[C@@H](CO)C(=O)N[C@@H](CO)C(=O)NCC(=O)N[C@@H](C)C(=O)N1CCC[C@H]1C(=O)N1CCC[C@H]1C(=O)N1CCC[C@H]1C(=O)N[C@@H](CO)C(N)=O [mt-139] (H-YSQGTFTSDYSKYLDEQAAKEFIAWLLAGGPSSGAPPPS-NH2; lactam 16-20; N-terminus assumed)
Glucagon Receptor relative activity [1, 4]: 561.11% | GLP-1 Receptor relative activity [2, 4]: 41.46% | GIP Receptor relative activity [3, 4]: 12.22%
